Reference: the NIST ThermoML archive (doi:10.1016/j.jct.2005.07.019)
Numbers after ± are expanded uncertainties.

Experiment: mn = molality of the nth substance listed, in mol/kg
Settings: 350 kPa, Liquid, Extra sensitive DSC

N[C@@H](CO)C(=O)O [L-serine] + O
apparent molar heat capacity [J/K/mol]
Settings	m1 = 0.015	m1 = 0.0302	m1 = 0.05	m1 = 0.08	m1 = 0.1249	m1 = 0.2501	m1 = 0.3717	m1 = 0.7002	m1 = 1.001
278.15 K	58.9 ± 52	59.2 ± 26	58.9 ± 16	60.7 ± 9.8	62.4 ± 6.4	67.93 ± 3.5	72.64 ± 2.7	84.65 ± 1.9	94.04 ± 1.7
283.15 K	78.9 ± 52	79.3 ± 26	79.2 ± 16	80.6 ± 9.9	82.1 ± 6.4	86.36 ± 3.6	90.3 ± 2.7	99.99 ± 2	108.37 ± 1.8
288.15 K	94.8 ± 52	95.4 ± 26	95.2 ± 16	96.5 ± 9.9	97.7 ± 6.4	101.28 ± 3.6	104.58 ± 2.7	112.69 ± 2	120.13 ± 1.8
293.15 K	108 ± 52	108.7 ± 26	108.4 ± 16	109.5 ± 9.9	110.5 ± 6.5	113.56 ± 3.6	116.4 ± 2.8	123.33 ± 2	129.97 ± 1.8
298.15 K	118.7 ± 52	119.4 ± 26	119.2 ± 16	120.1 ± 10	120.9 ± 6.5	123.63 ± 3.6	126.11 ± 2.8	132.2 ± 2	138.25 ± 1.8
303.15 K	127.9 ± 52	128.6 ± 26	128.4 ± 16	129.2 ± 10	129.9 ± 6.5	132.24 ± 3.7	134.43 ± 2.8	139.82 ± 2	145.45 ± 1.8
308.15 K	135.6 ± 52	136.4 ± 26	136.2 ± 16	136.9 ± 10	137.5 ± 6.5	139.63 ± 3.7	141.58 ± 2.8	146.36 ± 2	151.62 ± 1.8
313.15 K	142.6 ± 52	143.1 ± 26	142.9 ± 16	143.5 ± 10	144.1 ± 6.6	145.98 ± 3.7	147.77 ± 2.8	152.15 ± 2	157.1 ± 1.8
318.15 K	148.7 ± 52	148.9 ± 26	148.6 ± 16	149.2 ± 10	149.7 ± 6.6	151.4 ± 3.7	153.04 ± 2.8	157.06 ± 2	161.73 ± 1.8
323.15 K	153.9 ± 52	154.1 ± 26	153.8 ± 16	154.2 ± 10	154.6 ± 6.6	156.2 ± 3.7	157.74 ± 2.9	161.47 ± 2	165.95 ± 1.8
328.15 K	158.6 ± 52	158.6 ± 26	158.3 ± 16	158.7 ± 10	159 ± 6.7	160.4 ± 3.9	161.86 ± 2.9	165.32 ± 2.1	169.63 ± 1.8
333.15 K	163.4 ± 52	163.1 ± 26	162.2 ± 16	162.6 ± 10	162.9 ± 6.7	164.2 ± 3.9	165.59 ± 2.9	168.83 ± 2.1	173.01 ± 1.8
338.15 K	167.3 ± 52	166.8 ± 26	165.8 ± 16	166.2 ± 10	166.4 ± 6.8	167.6 ± 3.9	168.91 ± 3	172 ± 2.1	176.07 ± 1.9
343.15 K	170.4 ± 52	169.9 ± 26	168.8 ± 16	169 ± 10	169.3 ± 6.8	170.5 ± 3.9	171.75 ± 3	174.71 ± 2.1	178.65 ± 1.9
348.15 K	173.7 ± 52	172.4 ± 26	171.4 ± 16	171.6 ± 10	171.9 ± 6.9	173.1 ± 4	174.28 ± 3	177.14 ± 2.2	181.02 ± 1.9
353.15 K	176 ± 52	174.9 ± 26	173.8 ± 16	174 ± 10	174.3 ± 6.9	175.4 ± 4	176.6 ± 3	179.33 ± 2.2	183.15 ± 1.9
358.15 K	178 ± 52	176.9 ± 26	176 ± 16	176 ± 10	176.4 ± 7	177.4 ± 4	178.6 ± 3	181.28 ± 2.2	185.03 ± 2
363.15 K	179 ± 52	178.4 ± 27	177.6 ± 16	177.7 ± 10	178.1 ± 7.1	179.1 ± 4.1	180.3 ± 3.2	182.94 ± 2.3	186.63 ± 2
368.15 K	181 ± 52	179.7 ± 27	178.9 ± 16	179 ± 10	179.6 ± 7.1	180.6 ± 4.1	181.8 ± 3.2	184.38 ± 2.3	188 ± 2
373.15 K	181 ± 53	180.9 ± 27	180.2 ± 16	180.1 ± 11	180.7 ± 7.1	181.8 ± 4.1	183 ± 3.2	185.63 ± 2.3	189.22 ± 2
378.15 K	181 ± 53	181.7 ± 27	181 ± 16	180.7 ± 11	181.7 ± 7.3	182.9 ± 4.1	183.9 ± 3.2	186.55 ± 2.3	190.12 ± 2
383.15 K	182 ± 54	182.2 ± 27	181.8 ± 17	181.3 ± 11	182.4 ± 7.3	183.8 ± 4.1	184.8 ± 3.2	187.46 ± 2.3	190.98 ± 2
388.15 K	183 ± 54	182.6 ± 27	182.7 ± 17	181.4 ± 11	183 ± 7.4	184.4 ± 4.3	185.4 ± 3.3	188.07 ± 2.4	191.6 ± 2.1
393.15 K	183 ± 55	182.6 ± 28	183.3 ± 17	181.2 ± 11	183.4 ± 7.4	184.8 ± 4.3	185.7 ± 3.3	188.6 ± 2.5	192.04 ± 2.1

N[C@H](CO)C(=O)O [(R)-(-)-serine] + O
apparent molar heat capacity [J/K/mol]
Settings	m1 = 0.0151	m1 = 0.0301	m1 = 0.0501	m1 = 0.08	m1 = 0.1251	m1 = 0.2505	m1 = 0.35
278.15 K	54.5 ± 51	55.7 ± 26	56.5 ± 16	58.3 ± 9.8	60.7 ± 6.3	66.74 ± 3.4	71.19 ± 2.6
283.15 K	75.2 ± 52	76.1 ± 26	76.8 ± 16	78.4 ± 9.9	80.6 ± 6.4	85.06 ± 3.4	89.13 ± 2.6
288.15 K	91.1 ± 52	92.2 ± 26	92.8 ± 16	94.4 ± 9.9	96.3 ± 6.4	100.09 ± 3.4	103.68 ± 2.7
293.15 K	104.3 ± 52	105.4 ± 26	106.1 ± 16	107.6 ± 9.9	109.2 ± 6.5	112.47 ± 3.5	115.73 ± 2.7
298.15 K	114.8 ± 52	116.1 ± 26	116.8 ± 16	118.3 ± 10	119.8 ± 6.5	122.69 ± 3.5	125.65 ± 2.7
303.15 K	123.8 ± 52	125.6 ± 26	126.3 ± 16	127.5 ± 10	128.8 ± 6.5	131.45 ± 3.5	134.16 ± 2.7
308.15 K	132.3 ± 52	133.5 ± 26	134.1 ± 16	135.4 ± 10	136.6 ± 6.5	138.97 ± 3.6	141.5 ± 2.8
313.15 K	139.7 ± 52	140.5 ± 26	141 ± 16	142.1 ± 10	143.3 ± 6.6	145.58 ± 3.6	147.86 ± 2.8
318.15 K	145.3 ± 52	146.2 ± 26	146.7 ± 16	147.9 ± 10	149 ± 6.7	151.1 ± 3.7	153.28 ± 2.9
323.15 K	150 ± 52	151.2 ± 26	151.8 ± 16	153 ± 10	154.1 ± 6.7	156.06 ± 3.7	158.13 ± 2.9
328.15 K	155 ± 52	156 ± 26	156.5 ± 16	157.5 ± 10	158.6 ± 6.8	160.5 ± 3.7	162.4 ± 2.9
333.15 K	159 ± 52	160.2 ± 27	160.7 ± 16	161.7 ± 10	162.6 ± 6.9	164.4 ± 3.9	166.3 ± 3
338.15 K	163 ± 53	163.7 ± 27	164.2 ± 16	165.2 ± 11	166.2 ± 7	167.9 ± 3.9	169.76 ± 3
343.15 K	166 ± 54	167 ± 27	167.4 ± 17	168.3 ± 11	169.2 ± 7.1	170.9 ± 4	172.7 ± 3.1
348.15 K	169 ± 54	170.1 ± 28	170.4 ± 17	171.1 ± 11	172 ± 7.2	173.7 ± 4	175.4 ± 3.1
353.15 K	171 ± 55	172.2 ± 28	172.6 ± 17	173.6 ± 11	174.4 ± 7.3	176.1 ± 4	177.8 ± 3.1
358.15 K	174 ± 56	174.3 ± 28	174.9 ± 17	175.8 ± 11	176.7 ± 7.4	178.3 ± 4.1	180 ± 3.3
363.15 K	176 ± 57	176.2 ± 29	176.7 ± 18	177.7 ± 11	178.5 ± 7.5	180.2 ± 4.1	181.8 ± 3.3
368.15 K	177 ± 57	177.8 ± 29	178.2 ± 18	179.2 ± 12	180.1 ± 7.6	181.7 ± 4.3	183.4 ± 3.3
373.15 K	178 ± 58	179.3 ± 30	179.6 ± 18	180.5 ± 12	181.4 ± 7.7	183.1 ± 4.3	184.7 ± 3.4
378.15 K	180 ± 59	180.4 ± 30	180.7 ± 18	181.6 ± 12	182.5 ± 7.8	184.2 ± 4.4	185.8 ± 3.4
383.15 K	181 ± 61	181 ± 31	181.4 ± 19	182.4 ± 12	183.3 ± 8	185.2 ± 4.4	186.8 ± 3.4
388.15 K	181 ± 62	182 ± 31	182.1 ± 19	183 ± 12	184 ± 8.1	186 ± 4.5	187.4 ± 3.6
393.15 K	182 ± 62	182 ± 31	182.5 ± 19	183.5 ± 12	184.4 ± 8.2	186.5 ± 4.5	187.9 ± 3.6
